Some targets named below: PIK3CB (Human) (UniProt P42338); PIK3CD (Human) (UniProt O00329); PIK3CA (human) (UniProt P42336); PIK3CG (human) (UniProt P48736).
Holding throughout (experiment): Enzyme Assay

Chain of PIK3CD (Human) (O00329 whole entry, looked up): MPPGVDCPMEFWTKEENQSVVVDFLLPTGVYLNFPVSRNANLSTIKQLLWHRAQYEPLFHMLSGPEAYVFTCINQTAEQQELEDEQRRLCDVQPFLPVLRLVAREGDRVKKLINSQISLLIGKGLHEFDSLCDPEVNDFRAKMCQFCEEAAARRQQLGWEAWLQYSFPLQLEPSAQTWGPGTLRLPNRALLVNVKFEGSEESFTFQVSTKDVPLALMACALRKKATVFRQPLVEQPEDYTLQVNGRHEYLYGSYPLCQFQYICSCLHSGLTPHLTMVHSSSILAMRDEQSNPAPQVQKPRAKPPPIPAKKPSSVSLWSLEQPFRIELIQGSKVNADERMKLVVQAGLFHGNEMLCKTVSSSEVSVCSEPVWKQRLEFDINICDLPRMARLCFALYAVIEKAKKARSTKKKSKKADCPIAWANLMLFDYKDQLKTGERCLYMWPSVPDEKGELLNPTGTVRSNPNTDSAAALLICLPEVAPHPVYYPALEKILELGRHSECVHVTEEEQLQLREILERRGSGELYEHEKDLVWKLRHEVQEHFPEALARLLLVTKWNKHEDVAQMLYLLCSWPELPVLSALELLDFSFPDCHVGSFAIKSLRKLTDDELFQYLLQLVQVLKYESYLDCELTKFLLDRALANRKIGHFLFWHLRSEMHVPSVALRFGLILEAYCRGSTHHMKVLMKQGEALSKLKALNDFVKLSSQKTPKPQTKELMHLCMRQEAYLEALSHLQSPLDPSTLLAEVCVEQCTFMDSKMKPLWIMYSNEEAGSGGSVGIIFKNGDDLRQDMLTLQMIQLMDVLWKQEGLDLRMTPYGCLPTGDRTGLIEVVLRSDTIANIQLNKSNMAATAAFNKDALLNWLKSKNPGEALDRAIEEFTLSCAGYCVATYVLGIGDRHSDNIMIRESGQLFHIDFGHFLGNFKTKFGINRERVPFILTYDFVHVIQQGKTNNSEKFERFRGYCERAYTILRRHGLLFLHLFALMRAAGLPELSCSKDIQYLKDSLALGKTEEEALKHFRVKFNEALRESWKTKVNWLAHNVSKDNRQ
Chain of PIK3CA (human) (P42336 whole entry, looked up): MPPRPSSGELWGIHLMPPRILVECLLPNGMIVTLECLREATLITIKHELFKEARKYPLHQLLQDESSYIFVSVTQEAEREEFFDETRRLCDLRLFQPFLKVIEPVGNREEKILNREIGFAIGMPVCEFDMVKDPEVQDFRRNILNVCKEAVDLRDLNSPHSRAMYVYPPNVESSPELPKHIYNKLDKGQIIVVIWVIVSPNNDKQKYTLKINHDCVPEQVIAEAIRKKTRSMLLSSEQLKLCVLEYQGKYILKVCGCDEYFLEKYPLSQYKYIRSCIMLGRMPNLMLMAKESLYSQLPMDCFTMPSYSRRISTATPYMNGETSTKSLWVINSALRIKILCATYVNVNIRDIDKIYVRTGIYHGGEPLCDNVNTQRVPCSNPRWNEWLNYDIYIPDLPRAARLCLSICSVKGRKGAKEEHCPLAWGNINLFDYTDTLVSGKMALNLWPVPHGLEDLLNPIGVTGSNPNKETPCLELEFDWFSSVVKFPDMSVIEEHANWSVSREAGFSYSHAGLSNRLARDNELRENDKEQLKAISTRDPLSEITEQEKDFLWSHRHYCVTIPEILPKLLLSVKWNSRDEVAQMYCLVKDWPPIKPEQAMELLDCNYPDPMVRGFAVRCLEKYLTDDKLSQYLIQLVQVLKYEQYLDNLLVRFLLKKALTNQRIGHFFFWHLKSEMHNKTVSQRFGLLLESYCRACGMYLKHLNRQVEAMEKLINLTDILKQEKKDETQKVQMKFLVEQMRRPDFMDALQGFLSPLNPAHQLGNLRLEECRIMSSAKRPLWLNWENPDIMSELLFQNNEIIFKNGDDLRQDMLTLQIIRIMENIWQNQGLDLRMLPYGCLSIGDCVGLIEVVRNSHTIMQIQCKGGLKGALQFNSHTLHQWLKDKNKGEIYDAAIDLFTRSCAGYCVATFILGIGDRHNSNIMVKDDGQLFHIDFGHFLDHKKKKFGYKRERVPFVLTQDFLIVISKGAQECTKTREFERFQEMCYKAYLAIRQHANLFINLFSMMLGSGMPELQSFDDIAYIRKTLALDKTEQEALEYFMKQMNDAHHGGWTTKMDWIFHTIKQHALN
Chain of PIK3CB (Human) (P42338 whole entry, looked up): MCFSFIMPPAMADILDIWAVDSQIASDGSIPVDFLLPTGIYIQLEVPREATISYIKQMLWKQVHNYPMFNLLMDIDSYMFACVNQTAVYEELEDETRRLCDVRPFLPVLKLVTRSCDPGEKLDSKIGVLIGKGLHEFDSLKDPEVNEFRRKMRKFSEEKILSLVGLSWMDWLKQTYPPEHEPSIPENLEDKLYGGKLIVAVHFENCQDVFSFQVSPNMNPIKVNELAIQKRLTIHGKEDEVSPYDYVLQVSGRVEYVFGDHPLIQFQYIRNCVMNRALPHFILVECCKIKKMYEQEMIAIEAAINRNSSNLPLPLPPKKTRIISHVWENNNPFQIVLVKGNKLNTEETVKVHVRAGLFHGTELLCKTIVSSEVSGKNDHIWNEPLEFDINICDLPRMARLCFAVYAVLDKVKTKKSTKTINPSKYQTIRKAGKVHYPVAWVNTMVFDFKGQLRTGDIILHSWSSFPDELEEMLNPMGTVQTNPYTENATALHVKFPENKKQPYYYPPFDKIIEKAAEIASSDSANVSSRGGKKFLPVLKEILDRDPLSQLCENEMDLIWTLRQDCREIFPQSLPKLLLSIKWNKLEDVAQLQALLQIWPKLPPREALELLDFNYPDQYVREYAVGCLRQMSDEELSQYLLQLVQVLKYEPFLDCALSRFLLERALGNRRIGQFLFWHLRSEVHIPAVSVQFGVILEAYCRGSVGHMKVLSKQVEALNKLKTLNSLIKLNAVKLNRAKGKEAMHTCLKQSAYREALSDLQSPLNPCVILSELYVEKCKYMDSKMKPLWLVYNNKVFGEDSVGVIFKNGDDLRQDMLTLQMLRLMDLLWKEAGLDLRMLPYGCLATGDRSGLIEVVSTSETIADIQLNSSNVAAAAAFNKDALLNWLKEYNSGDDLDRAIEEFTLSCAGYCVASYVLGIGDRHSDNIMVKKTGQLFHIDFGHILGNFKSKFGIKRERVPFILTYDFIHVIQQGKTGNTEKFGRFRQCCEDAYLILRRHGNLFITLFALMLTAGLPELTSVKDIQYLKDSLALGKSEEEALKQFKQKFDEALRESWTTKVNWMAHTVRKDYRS
Chain of PIK3CG (human) (P48736 whole entry, looked up): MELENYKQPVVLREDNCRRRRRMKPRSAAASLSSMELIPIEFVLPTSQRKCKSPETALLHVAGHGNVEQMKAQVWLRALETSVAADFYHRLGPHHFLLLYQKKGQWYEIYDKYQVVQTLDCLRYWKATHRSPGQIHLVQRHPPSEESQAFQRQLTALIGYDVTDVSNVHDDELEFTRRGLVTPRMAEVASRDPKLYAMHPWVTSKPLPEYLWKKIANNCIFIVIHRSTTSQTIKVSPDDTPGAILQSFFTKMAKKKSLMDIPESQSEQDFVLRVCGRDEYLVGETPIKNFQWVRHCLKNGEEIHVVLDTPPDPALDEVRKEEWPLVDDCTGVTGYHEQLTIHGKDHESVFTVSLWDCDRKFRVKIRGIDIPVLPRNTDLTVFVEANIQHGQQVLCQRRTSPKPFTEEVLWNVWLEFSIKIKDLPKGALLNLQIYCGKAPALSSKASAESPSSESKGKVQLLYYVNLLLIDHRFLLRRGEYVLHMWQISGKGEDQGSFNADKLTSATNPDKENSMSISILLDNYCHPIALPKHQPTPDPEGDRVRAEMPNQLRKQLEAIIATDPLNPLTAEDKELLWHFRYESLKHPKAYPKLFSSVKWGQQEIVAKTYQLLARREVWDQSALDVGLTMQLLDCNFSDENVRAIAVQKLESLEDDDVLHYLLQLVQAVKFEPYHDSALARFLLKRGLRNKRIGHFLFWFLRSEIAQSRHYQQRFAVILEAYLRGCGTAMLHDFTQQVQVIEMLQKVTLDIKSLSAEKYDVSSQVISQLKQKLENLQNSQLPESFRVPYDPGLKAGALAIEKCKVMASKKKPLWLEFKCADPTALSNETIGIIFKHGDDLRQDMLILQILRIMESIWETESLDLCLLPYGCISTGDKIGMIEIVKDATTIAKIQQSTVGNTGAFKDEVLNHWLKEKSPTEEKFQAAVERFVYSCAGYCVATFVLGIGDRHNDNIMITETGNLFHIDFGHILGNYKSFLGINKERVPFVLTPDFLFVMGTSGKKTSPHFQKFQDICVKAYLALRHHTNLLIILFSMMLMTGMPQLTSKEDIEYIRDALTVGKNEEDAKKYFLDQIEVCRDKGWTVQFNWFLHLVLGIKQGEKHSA

Take `CS(=O)(=O)N1CCN(Cc2cc3nc(-c4cnc(N)nc4)nc(N4CCOCC4)c3s2)CC1`: the values for the half-inhibitory concentration (IC50) at PIK3CB (Human) and against PIK3CD (Human) were 12 nM and 16 nM, respectively.
In the case of `CC(C)c1nc2ccccc2n1-c1nc(N2CCOCC2)c2nc(OC3CN(C4CCS(=O)(=O)CC4)C3)n(C)c2n1`, the inhibitory constant (Ki) at PIK3CD (Human) was found to be 0.4 nM.
On PIK3CD (Human), `Cc1c(Cl)cccc1Cn1c(SCC(=O)O)nc(=O)c2sc(N3CCOCC3)nc21` had an IC50 of 3 nM.
At PIK3CA (human), `N#Cc1c(N2CCOCC2)sc(-c2nc[nH]n2)c1-c1ccc(Cl)cc1Cl` returned an IC50 of 0.35 nM.
In turn, `O=C(c1ccccc1)c1ccc(N2CCOCC2)cc1O` showed a half-inhibitory concentration (IC50) against PIK3CB (Human) of 3700 nM.
With `CCOC(=O)c1ccc(-c2csc3c(=O)cc(N4CCOCC4)oc23)cc1`, on PIK3CD (Human), the IC50 is 12 nM.
As for `CC1(C)CC(=O)c2sc(N3CCOc4ccccc43)nc2C1`, the IC50 at PIK3CG (human) amounted to 610 nM; on PIK3CD (Human) it was 830 nM.
On to `Cc1c(OCCN2CCN(C)CC2)ccc2c(=O)nc(N3CCOCC3)oc12`, for which the IC50 at PIK3CA (human) is at least 100000 nM.
In the case of `CN(C)CCN(C)C(=O)c1ccc(NC(=O)Nc2ccc(-c3nc(N4CCOCC4)c4ccn(CC(F)(F)F)c4n3)cc2)cc1`, the IC50 at PIK3CA (human) came to 2.4 nM. This lies in the single-digit nanomolar range.
In the case of `CN(C)CCCNC(=O)c1cn2cc(-c3cccc4[nH]ncc34)nc(N3CCOCC3)c2n1`, on PIK3CA (human), the IC50 turned out to be 35 nM. This IC50 is about 15-fold higher than that of the compound before.

The IC50 is the concentration that gives 50% inhibition. A higher IC50 goes with a need for much substance. The term Ki denotes a measure of affinity in units of concentration, obtained from inhibition or displacement.

The record behind these values is the Kinase Knowledgebase extract (Sharma et al. 2016).
